For one compound, Side effects and Flea efficacy results are on record in patent US20240239759A1, “ISOXAZOLINE COMPOSITIONS AND THEIR USE AS ANTIPARASITICS” (Intervet Inc., priority 2007, published 2024).

A short description of data set [1]: Side effects in mice, mite study (Example 2B). The class given is in vivo. To be noted: topical 100 ppm, oral or subcutaneous 10 mg/kg, twice 7 days apart. The method, then: The mice were divided into groups of three, and treated topically with 100 ppm body weight, orally with 10 mg/kg body weight, or subcutaneously with 10 mg/kg body weight of Compound 11-1, fipronil (positive control), or nothing (negative control). This treatment was then repeated 7 days later. The infestation rate per mouse (“+”=low infestation rate, “++”=medium infestation rate, “+++”=high infestation rate) was assessed repeatedly on days 1, 6, 9, 13, and 23. Efficacy was defined as the inhibition of the mite infestation rate on treated mice relative to the negative control group.

Another data set relates to cat fleas (C. felis). In words: Efficacy against cat fleas on dogs (Example 5). The class given is in vivo, Ctenocephalides felis. The following applies: beagles, Day 2 (approx. 48 hr after treatment). The method, then:
On Day Zero, one group of 4 beagles was treated orally with gelatin capsules containing 20 mg/kg body weight of […]. Another group of 4 beagles was treated topically by washing with 2 L of solution containing 200 ppm body weight of […] dissolved in DMF-premix/tap water (1:100, based on volume). Finally, a group of 3 beagles remained untreated as the negative control. Two days before treatment on Day Zero, all the beagles were each infested with approximately 80 unfed adult fleas (C. felis) and approximately 60 unfed adult ticks (R. sanguineus). The parasite burden of each beagle was assessed on Day 2 (approximately 48 hr after the treatment) by removing and counting the fleas and ticks. Fleas and ticks were classified according to vitality (fleas: dead or alive; ticks: dead or alive, and engorged or not engorged). The efficacy was calculated from the mean number of vital fleas and ticks in the treated group (Mt) relative to the mean number of vital fleas and ticks in the untreated control group (Mc) using following formula: […]

For `Cc1cc(C2=NOC(c3cc(Cl)cc(Cl)c3)(C(F)(F)F)C2)ccc1C(=O)NCC(=O)NCC(F)(F)F` (racemic) [Compound 11-1, 4-[5-(3,5-dichlorophenyl)-5-trifluoromethyl-4,5-dihydroisoxazol-3-yl]-2-methyl-N-[(2,2,2-trifluoro-ethylcarbamoyl)-methyl]-benzamide], the Side effects result in data set [1] was “No side effects were observed”. Besides, the Flea efficacy in the data set with cat fleas (C. felis) (oral gelatin capsules 20 mg/kg) and with cat fleas (C. felis) (topical washing with 2 L of 200 ppm solution) was 100% in each case.
